Assay results taken from US7745465B2, “Method of enhancing cellular production of molecular chaperone, hydroxylamine derivatives useful for enhancing the chaperone production and the preparation thereof” (CytRx Corporation, priority 1995, dated 2010).

Key:
HSP72 = experiment: Heat stress induced HSP72 production in 3T3 cells; format: cell-based, mouse; conditions: 10^−5 M
Description: From the applied cells the 3T3 and L-929 mouse fibroblasts were cultured in MEM medium and grew in monolayer, the U-937 human leukemia cells were maintained in RPMI-1640 medium, in suspension culture, while the HeLa human epithelial cells were cultured in DMEM medium and in monolayer form. Cell cultures were maintained as described in example 6.2 (a) with the difference that cells were cultured in the above mentioned culture mediums.
Experiments were carried out applying stress before and after the drug treatment. Stress was provoked by heat, by chemical agent, HgCl2 treatment. The test compounds were applied in the treatments at the 10^−5 M concentration.
The experiments on 3T3 cell applying heat stress were performed as described in the 6.2. (c) point of example 6, with the difference that stress was induced by a 30 min. exposure at 43° C. temperature and treatment with the test compounds was performed 15 min. before or 100 min. after the heat stress.
Immunodetection was carried out using the HSP72 specific SPA 810 (StressGene) primary and the horse-radish peroxidase conjugated A9044 (Sigma) secondary antibodies. Densitometric evaluation was performed by a LKB Ultrascan XL densitometer.

Male Sprague-Dawley rats = experiment: Protection against cardiac ischaemia: survival after 5 minutes coronary occlusion and reperfusion; format: in vivo, rat; conditions: i.v. 1 mg/kgbw, 5 min. before the occlusion; non-treated control 10
Description: Male Sprague-Dawley rats (380-450 g b.w.) were anaesthetized with sodiumpentobarbital (Nembutal 60 mg/kg body weight, i.p.) and artificially ventilated with room air (2 ml/100 g; 54 stroke/minutes) via tracheotomy. The right carotid artery was catheterized and connected to a pressure transducer (BPR-01, Stoelting) for the measurement of systemic arterial blood pressure (BP) by means of a preamplifier (Hg-02, Experimetria). Hydroxylamine derivatives disclosed in Example 5 were administered via the venous cannule to jugular vein (i.v.) and orally (p.o.). Heart rate (HR) was measured by a cardiotachometer (HR-01, Experimetria). The electrocardiogram (ECG standard lead II) was recorded on a devices recorder (MR-12, Medicor) by means of subcutaneous steel needles electrodes. The chest was opened by a left thoracotomy and the heart was exteriorized by a gentle pressure on the right side of the rib cage. A 4-0 silk suture was quickly placed under the main left coronary artery as described by Selye et al. (1960). The heart was carefully replaced in the chest and the animal left to recover. Rectal temperature was monitored and kept constant at 37 C. The experimental protocol was initiated with a 15 minute stabilization period during which the observation of a sustained blood pressure less than 70 mmHg and or the occurrence of anhythmia led to exclusion. Myocardial ischemia was induced with coronary occlusion for 5 minutes and reperfusion allowed for 10 minutes.
During the entire experiment BP, HR and ECG were continuously registered on a multiscriptor (R61-6CH, Medicor). Hydroxylamine derivatives, the tautomeric forms of which are represented by structures (I) and (II), were administered 5 to 60 minutes before the occlusion after i.v. and p.o. treatment, respectively. […]
The mean duration of ventricular tachycardia (VT) and/or ventricular fibrillation (VF) during the first 3 minutes of reperfusion was analyzed by one-way analysis of variance. The incidence of VF was analyzed using a chi-square test. […] The haemodynamic variables were analyzed using Student's “t”-test. The critical level of significance was set at p<0.05. All results were expressed as a means±S.E.M. Drugs were administered i.v. in a dose of 1 mg/kgbw 5 min. before the occlusion.
The hydroxylamine derivatives that are found to be particularly advantageous for protecting an animal against ischemic/reperfusion injury are listed below. Survival (%) indicates the percent of animals survived the effects of 5 minutes coronary occlusion.

[1] = treatment 15 min. before 30 min. 43° C. heat stress
[2] = treatment 100 min. after 30 min. 43° C. heat stress

Compound | HSP72 level relative to the stress exposed control (HSP72; [1]) | Survival (%) (Male Sprague-Dawley rats) | HSP72 level relative to the stress exposed control (HSP72; [2])
O=C(O)/C=C\C(=O)O.OC(CON=C(Cl)c1cccnc1)CN1CCCCC1 (single isomer, unassigned; (-)) [(−)N-[2-hydroxy-3-(1-piperidinyl)-propoxy]-3-pyridine-carboximidoyl-chloride-(Z)-2-butenedioate(1:1)] | +++ (>100%) |  | 
O=C(O)/C=C\C(=O)O.c1cncc(C2=NOCC(CN3CCCCC3)O2)c1 (centres unmarked) [3-(3-piridyl)-5-[(1-piperidinyl)-methyl]-5,6-dihydro-6H-1,4,2-dioxazine-(Z)-2-butenedioate(1:1)] | ++ (51-100%) |  | 
Cl.c1ccc(C2=NOCC(CN3CCCCC3)O2)cc1 (centres unmarked) [3-phenyl-5-[(1-piperidinyl)-methyl]-5,6-dihydro-6H-1,4,2-dioxazine hydrochloride] | ++ (51-100%) |  | 
Cl.OC(CON=C(Cl)c1ccco1)CN1CCCCC1 (centres unmarked) [Example 7, N-[2-hydroxy-3-(1-piperidinyl)propoxy]-2-furanecarboximidoyl chloride monohydrochloride] |  | 80 | 
O=C(O)/C=C\C(=O)O.OC(CON=C(Cl)c1ccncc1)CN1CCCCC1 (centres unmarked) [Example 8, N-[2-hydroxy-3-(1-piperidinyl)propoxy]-4-pyridinecarboximidoyl chloride (Z)-2-butenedioate (1:1)] |  | 100 | ++ (51-100%)
CC(C)NCC(O)CON=C(Cl)c1cccc(C(F)(F)F)c1.Cl (centres unmarked) [Example 10, N-[2-hydroxy-3-[(1-methylethyl)amino]propoxy]-3-trifluoromethyl-benzene-carboximidoyl chloride monohydrochloride] |  | 67 | 
Cl.OC(CON=C(Cl)c1cccc(C(F)(F)F)c1)CN1CCCCC1 (centres unmarked) [Example 13, N-[2-hydroxy-3-(1-piperidinyl)propoxy]-3-trifluoromethyl-benzenecarboximidoyl chloride monohydrochloride] |  | 60 | 
C[n+]1cccc(C(Cl)=NOCC(O)C[N+]2(C)CCCCC2)c1.[I-].[I-] (centres unmarked) [Example 16, N′-[2-hydroxy-3-(1-methyl-1-piperidinium-1-yl)propoxy]-N-methyl-pyridinium-3-carboximidoyl chloride diiodide] | +++ (>100%) | 67 | +++ (>100%)
N=C(NOCC(CN1CCCCC1)OC(=O)c1ccccc1)c1cccnc1.O=C(O)/C=C\C(=O)O (centres unmarked) [Example 20, N-[2-benzoyloxy-3-(1-piperidinyl)propoxy]-3-pyridinecarboximidamide (Z)-2-butenedioate (1:1)] |  | 100 | 
Cl.Cl.N=C(NOCC(O)CN1CCCCC1)c1cnc2ccccc2c1 (centres unmarked) [Example 42] | +++ (>100%) |  | +++ (>100%)
CC(C)(C)NCC(O)CONC(=N)c1cccc(C(F)(F)F)c1.Cl.Cl (centres unmarked) [Example 47, N-[3-[(1,1-dimethylethyl)amino]-2-hydroxypropoxy]-3-trifluoromethyl-benzenecarboximidamide dihydrochloride] |  | 100 | 
CCCNC(=O)NOCC(O)CN1CCCCC1 (centres unmarked) [Example 56, N-[2-hydroxy-3-(1-piperidinyl)propoxy]-N′-propyl-urea] | +++ (>100%) |  | 
CC(C)(C)NC(=O)NOCC(O)CN1CCCCC1 (centres unmarked) [Example 62, N-tert-butyl-N′-[(2-hydroxy-3-(1-piperidinyl)propoxy)]-urea] |  | 57 | 
O=C(NOCC(O)CN1CCCCC1)Nc1cccc([N+](=O)[O-])c1 (centres unmarked) [Example 63, N-(3-nitro-phenyl)-N′-[(2-hydroxy-3-(1-piperidinyl)propoxy)]-urea] |  | 50 | 
COC(=NOCC(O)CN1CCCCC1)c1cccnc1.O=C(O)/C=C\C(=O)O (centres unmarked) [Example 66, Methyl-N-[2-hydroxy-3-(1-piperidinyl)propoxy]-3-pyridinecarboximidate (Z)-2-butenedioate (1:1)] |  | 57 | 
CN(C)C(=Nc1ccccc1)NOCC(O)CN1CCCCC1.Cl (centres unmarked) [Example 71, N,N-dimethyl-N′-[2-hydroxy-3-(1-piperidinyl)-propoxy]-N″-phenyl-guanidine hydrochloride] | 0 (0 indicates that the treatment altered by ±20% the stress induced hsp72 level in the cells) |  | 

Compound | HSP72 level relative to the stress exposed control (HSP72; [1]) | Survival (%) (Male Sprague-Dawley rats) | HSP72 level relative to the stress exposed control (HSP72; [2])
Cl.OC(CON(C(=Nc1ccccc1)c1ccccc1)c1ccccc1)CN1CCCCC1 (centres unmarked) [Example 73] | 0 (0 indicates that the treatment altered by ±20% the stress induced hsp72 level in the cells) |  | 
COC(=NOCCCN1CCCCC1)c1cccnc1.O=C(O)/C=C\C(=O)O [Methyl-{N-[3-(1-piperidinyl)-propoxy]}-3-pyridine-carboximidate maleate] | 0 (0 indicates that the treatment altered by ±20% the stress induced hsp72 level in the cells) |  | 
CN(C)C(=NOCCCN1CCCCC1)Nc1ccccc1.Cl [N,N-dimethyl-N′-phenyl-N″-[3-(1-piperidinyl)-propoxy]-guanidine hydrochloride] | ++ (51-100%) |  | 
COc1ccc(CC(Cl)=NOCC(O)CN2CCCCC2)cc1OC (centres unmarked) [N-[2-hydroxy-3-(1-piperidyl)-propoxy]-∀-(3,4-dimethoxy-phenyl)-acetimidoyl chloride] |  | 67 | 
CCN(CC)CC(O)CON=C(Cl)c1cccnc1.Cl (centres unmarked) [N-[2-hydroxy-3-(diethyl-amino)-propoxy]-3-pyridincarboximidoyl chloride hydrochloride (1:1)] |  | 62 | 
O=C(O)/C=C\C(=O)O.OC(CON=C(Cl)c1cccnc1)CN1CCOCC1 (centres unmarked) [N-[2-hydroxy-3-(morpholin-1-yl-propoxy]-3-pyridincarboxamidoyl chloride (Z)-2-butendioate (1:1)] |  | 71 | 
O=C(O)/C=C\C(=O)O.OC(CON=C(Cl)c1cccnc1)CN1CCCC1 (centres unmarked) [N-[2-hydroxy-3-(pyrrolidin-1-yl)-propoxy]-3-pyridincarboximidoyl chloride (Z)-2-butendioate (1:1)] |  | 67 | 
CC(C)(C)NCC(O)CON=C(Cl)c1cccnc1.O=C(O)/C=C\C(=O)O (centres unmarked) [N-[2-hydroxy-3-(tert-butyl-amino)-propoxy]-3-pyridincarboxamidoyl chloride (Z)-2-butendioate (1:1)] |  | 57 | 
CC(C)NCC(O)CON=C(Cl)c1cccnc1.O=C(O)/C=C\C(=O)O (centres unmarked) [N-[2-hydroxy-3-prop-2-yl-amino)-propoxy]-3-pyridincarboximidoyl chloride (Z)-butendioate (1:1)] |  | 60 | 
CCCCCCNC(=O)N(C)OCCCN1CCCCC1 [N-[3-(I-piperidinyl)-propoxy]-N-methyl-N′-(n-hexyl)-urea] | 0 (0 indicates that the treatment altered by ±20% the stress induced hsp72 level in the cells) |  | 
Cl.c1cncc(C(=NOCCCN2CCCCC2)N2CCCC2)c1 [N-[3-(I-piperidinyl)-propoxy]-N′-tetramethylene-3-pyridine-carboxamidine hydrochloride] | +++ (>100%) |  | 
CC(=O)OC(CONC(=O)NC1CCCCC1)CN1CCCCC1.Cl (centres unmarked) [N-cyclohexyl-N′-[2-acetoxy-3-(1-piperidinyl)-propoxy]-urea hydrochloride] | 0 (0 indicates that the treatment altered by ±20% the stress induced hsp72 level in the cells) |  | 
CN(OCCCN1CCCCC1)C(=O)c1cccc(C(F)(F)F)c1.Cl [N-methyl-N-[3-(1-piperidinyl)-propoxy]-m-trifluoromethyl-benzamide hydrochloride] | +++ (>100%) |  | 
N-(2-hydroxy-3-piperidino-propoxy)-ethylurethane | + (21-50%) |  | 
N-[2-hydroxy-3-(1-piperidinyl)-propoxy]-benzylurethane | 0 (0 indicates that the treatment altered by ±20% the stress induced hsp72 level in the cells) |  | 
